We go through one compound from patent publication US20180064821A1, “SITE SPECIFIC CURCUMIN-POLYMER MOLECULAR COMPLEXES AND METHODS OF TREATING COLON DISEASES AND INFLAMMATION” (priority 2016, published 2018).

Broadly, the IC50 is the concentration that gives 50% inhibition.

Like-named read-outs stand apart in the source and are kept apart here. Where only a bound is given, the exact number is not on record here.

Series [1] in a line: Aqueous stability of curcumin complexes. The following applies: 37° C. Type of series: physicochemical. The protocol: At different time intervals (0, 1, 2, 4, 6, 8, 12, 16, 20, 24 h), the samples were collected, centrifuged (20,000 g) and the supernatant was passed through […] filter.
The subject of series [2] is HT29 colo-rectal cancer cells. Kind of series: pH dependent cellular uptake by flow cytometry, HT29. Type of series: cell-based, human. As to the method: (§1) Briefly, 2×10^5 cells were seeded in 24 well-plates and allowed to adhere for 24 h. […] After 4 h, the cells were washed with PBS, trypsinized, fixed using 4% paraformaldehyde (PFA) and stored at 4° C. until further analysis using flow cytometer. […] Sample acquisition was performed using BD Biosciences FACS LSR Fortessa and data analyzed using FlowJo software (FlowJo LLC).

The subject of series [3] is HCT116 human colo-rectal cancer cells. Kind of series: MTT cell viability assay, HCT116. The format is cell-based. The settings on record: 48 h incubation. As to the method:
(§2) Following 48 h of incubation, 0.5 mg/ml MTT solution was added to each well, and the cells were incubated for further 4 h at 37° C. After 4 h, 150 μl of DMSO was added to each well and incubated for 1 h at 37° C. to dissolve the formazan crystals. The absorbance was then measured at 570 nm with a reference wavelength of 650 nm using UV-visible spectrophotometer. The results are represented in terms of percentage inhibition of cell proliferation compared to that of vehicle control. The cellular viability was assessed as a percentage of the control by using the following equation.
In general terms: Tetrazolium assays rely on reduction of a dye to a coloured formazan, in cell work by metabolically active cells.

In series [4] the test system is HCT116 colo-rectal cancer cells. As to the kind of experiment: pH dependent cellular uptake by flow cytometry, HCT116. The format is cell-based, human. As to the method:
as §1
A general note: In flow cytometry, cells or beads pass a laser one at a time.

The test system of series [5] is HT29 human colo-rectal cancer cells. Kind of series: MTT cell viability assay, HT29. The format is cell-based. The settings on record: 48 h incubation. The protocol: as §2

Regarding `COc1cc(/C=C/C(=O)CC(=O)/C=C/c2ccc(O)c(OC)c2)ccc1O` [Curcumin, (1E,6E)-1,7-bis(4-hydroxy-3-methoxyphenyl)-1,6-heptadiene-3,5-dione], the initial curcumin present is approximately 10% in series [1] (SIF (pH 6.7-6.9) and pH 7.0 buffer with 10% methanol, 24 h); approximately 30% in series [1] (aqueous buffers with 10% methanol, within 2 h). The “Cellular uptake of curcumin, Mean fluorescence intensity” value is on record as 2704 ± 221 in series [2] (pH 5.5, 4 h); 2429 ± 247 in series [2] (pH 7.0, 4 h); 2543 ± 72 in series [4] (pH 5.5, 4 h); 3514 ± 975 in series [4] (pH 7.0, 4 h). For the same compound, the IC50 in series [3] (listed as Unformulated curcumin at pH 7.0, read-out: IC50 (mean ± SD) In HCT116 Cells) is more than 80 µM; in series [3] (listed as curcumin in DMSO, read-out: IC50 (mean ± SD) In HCT116 Cells), 18.4 ± 1.94 µM; in series [5] (listed as Unformulated curcumin at pH 7.0, read-out: IC50 (mean ± SD) In HT29 Cells), more than 80 µM; in series [5] (Homo sapiens, HT-29, 48 h, read-out: IC50 (mean ± SD) In HT29 Cells) it was 41.8 ± 1.86 µM.
